Assay results published in patent US5945429A, “Compounds useful for inhibition of farnesyl protein transferase” (Schering Corporation, priority 1997, dated 1999).
Where “and” joins values, the source holds several entries; their conditions need not be identical. Equal values may be shown once.

Legend:
[1] = biological target: T1, farnesyl protein transferase (Homo sapiens, UniProt P49354+P49356); test: FPT inhibition, in vitro enzyme assay (H-ras); type: biochemical
Procedure: (§1) FPT IC50 (inhibition of farnesyl protein transferase, in vitro enzyme assay) and COS Cell IC50 (Cell-Based Assay) were determined following the assay procedures described in WO 95/10516, published Apr. 20, 1995. GGPT IC50 (inhibition of geranylgeranyl protein transferase, in vitro enzyme assay), Cell Mat Assay, and anti-tumor activity (in vivo anti-tumor studies) could be determined by the assay procedures described in WO 95/10516. The disclosure of WO 95/10516 is incorporated herein by reference thereto.

[2] = biological target: T1, farnesyl protein transferase; test: FPT inhibition, in vitro enzyme assay (K-ras); type: biochemical
Procedure: as §1

[3] = system: COS Cell; test: COS Cell IC50 (Cell-Based Assay); conditions: COS cells
Procedure: as §1

[4] = system: Human tumor cells; test: Soft Agar Assay (anchorage-independent growth of human tumor cells); type: cell-based; conditions: 10-16 days at 37° C., 5% CO2, MTT stain
Procedure: Soft Agar Assay: Anchorage-independent growth is a characteristic of tumorigenic cell lines. Human tumor cells are suspended in growth medium containing 0.3% agarose and an indicated concentration of a farnesyl transferase inhibitor. The solution is overlayed onto growth medium solidified with 0.6% agarose containing the same concentration of farnesyl transferase inhibitor as the top layer. After the top layer is solidified, plates are incubated for 10-16 days at 37° C. under 5% CO2 to allow colony outgrowth. […] Colonies can be counted and the IC50 's can be determined.

T1 sequence (P49356 whole entry, one chain of several): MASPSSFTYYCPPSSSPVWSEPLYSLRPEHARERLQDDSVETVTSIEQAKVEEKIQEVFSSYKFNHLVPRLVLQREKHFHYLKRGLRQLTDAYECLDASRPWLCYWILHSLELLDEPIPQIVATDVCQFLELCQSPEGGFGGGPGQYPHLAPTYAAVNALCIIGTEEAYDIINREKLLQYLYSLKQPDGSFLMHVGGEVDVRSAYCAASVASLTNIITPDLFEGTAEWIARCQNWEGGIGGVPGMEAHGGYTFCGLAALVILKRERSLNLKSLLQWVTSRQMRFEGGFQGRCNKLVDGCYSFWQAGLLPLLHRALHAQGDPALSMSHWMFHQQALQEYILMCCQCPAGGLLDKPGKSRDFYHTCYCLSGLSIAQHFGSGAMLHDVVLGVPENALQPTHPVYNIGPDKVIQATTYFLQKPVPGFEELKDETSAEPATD

Structure (SMILES)	IC50 [1]	IC50 [2] [nM]	IC50 [3] [nM]	IC50 [4] [nM]
CCS(=O)(=O)N1CCC(CC(=O)N2CCC([C@H]3c4ncc(Br)cc4CCc4cc(Cl)cc(Br)c43)CC2)CC1 [Example 6]	3.7 nM	16.4	12	100
O=C(CC1CCN(S(=O)(=O)c2cccs2)CC1)N1CCC([C@H]2c3ncc(Br)cc3CCc3cc(Cl)cc(Br)c32)CC1 [Example 13]			50	> 250
Cn1cnc(S(=O)(=O)N2CCC(CC(=O)N3CCC([C@H]4c5ncc(Br)cc5CCc5cc(Cl)cc(Br)c54)CC3)CC2)c1 [Example 14]			400	

More lines, main results first:

IC50 [1]	IC50 [2] [nM]	Structure (SMILES)	IC50 [3] [nM]	IC50 [4] [nM]
5 nM	14.2	CCCS(=O)(=O)N1CCC(CC(=O)N2CCC([C@H]3c4ncc(Br)cc4CCc4cc(Cl)cc(Br)c43)CC2)CC1 [Example 7]		
5.8 nM	22.9	CC(C)S(=O)(=O)N1CCC(CC(=O)N2CCC([C@H]3c4ncc(Br)cc4CCc4cc(Cl)cc(Br)c43)CC2)CC1 [Example 8]		
17.5 nM and 8 nM		O=C(CC1CCN(S(=O)(=O)Cc2ccccc2)CC1)N1CCC([C@H]2c3ncc(Br)cc3CCc3cc(Cl)cc(Br)c32)CC1 [Example 9]		
34.1 nM	52.5	CC1(C)[C@@H]2CC[C@@]1(CS(=O)(=O)N1CCC(CC(=O)N3CCC([C@H]4c5ncc(Br)cc5CCc5cc(Cl)cc(Br)c54)CC3)CC1)C(=O)C2 [Example 10]		
